Patent US20110306671A1, “AMIDE DERIVATIVES OF ETHACRYNIC ACID” (The Regents of the The University of California, priority 2008, published 2011)
pEC50, pIC50: −log10 of the molar value. “And” between values parts separate entries of the source, which are not always exact repeats. Equal values may be shown once.

Tests used:
MCF-7 = assay: Cytotoxicity of EA in tumor cell line MCF-7; format: cell-based; conditions: Homo sapiens, MCF7, mean of at least two experiments
RAMOS = assay: Cytotoxicity of EA in tumor cell line RAMOS; format: cell-based; conditions: Homo sapiens, mean of at least two experiments
Fzd5 mRNA = assay: Real-time PCR of Fzd5 in CLL cells; format: cell-based, human; conditions: CLL cells from three patients, 16 hours
[1] = test system: NFATc-mediated transcription; assay: NFAT reporter assay in HEK293 cells; format: cell-based, human; conditions: 50 μM EA, 24 hours
Description: FIG. 1. Inhibition of Wnt/β-catenin signaling by EA. […] Cells were lysed and luciferase activity was quantified. Total protein levels were determined by Bradford Assay and serve as a control for total cell number. (B) HEK293 cells were co-transfected with TOPflash reporter construct, along with expression plasmids for Wnt1, Wnt3, LRP6, Dvl and β-catenin as indicated. […] (C) HEK293 cells were transfected with FOPflash reporter with or without an expression plasmid for β-catenin. […] (D) HEK293 cells were transfected with NFAT reporter and expression plasmid for NFATc. […] The results are expressed as fold induction of luciferase activity compared to the basal level, and are the means of three experiments±SEM. For screening of the drug library, HEK293 cells were grown for at least 24 hours in 10 cm plates prior to transfection. At 50% confluence, cells were transfected with 5 μg of TOPflash reporter, 1 μg expression vector for Dvl, 1 μg of control plasmid pCMXβgal and carrier DNA pcDNA3 plasmid for a total of 10 μg/plate. After transfection for 24 hours, cells were harvested and dispersed in 96-well microtiter plates. […] Then luciferase values were determined. In the Results section, data are expressed as fold stimulation of luciferase activity compared to the basal level. […]

HT29 = assay: Cytotoxicity of EA in tumor cell line HT29; format: cell-based; conditions: Homo sapiens, HT-29, mean of at least two experiments
Primary CLL cells [2] = assay: Cell viability assay (MTT) with primary CLL cells; conditions: 48 hours
CLL cells = assay: Levels of O2− or H2O2 in CLL cells treated with EA; format: cell-based, human; conditions: results not shown
Wnt/β-catenin signaling = assay: TOPflash reporter assay in transfected HEK293 cells; format: cell-based, human
B16 = assay: Cytotoxicity of EA in tumor cell line B16; format: cell-based; conditions: Mus musculus, mean of at least two experiments
PC3 = assay: Cytotoxicity of EA in tumor cell line PC3; format: cell-based; conditions: Homo sapiens, PC-3, mean of at least two experiments
Primary CLL cells [3] = assay: Cell apoptosis assay (DiOC6/PI flow cytometry) in primary CLL cells; format: cell-based, human; conditions: 3 μM EA; preliminary, data not shown
[4] = continuous i.v. infusion, cited from earlier work
LEF-1/β-catenin complex = target: T1, LEF-1/β-catenin complex (Homo sapiens, UniProt Q9UJU2); assay: Co-immunoprecipitation of the β-catenin complex in SW480 cells; format: cell-based; conditions: increasing EA, 16 hours
T1 construct: endogenous in cells; host or cells: SW480 cells
Description: FIG. 7. EA destabilizes the LEF-1/β-catenin complex. (A) SW480 cells were treated with increasing amounts of EA for 16 hours. Cells were lysed, and IP was completed with anti-β-catenin monoclonal antibody. The immune complexes were analyzed by immunoblotting with anti-LEF-1, anti-α-catenin and anti-β-catenin antibodies. (B) EA inhibits Wnt/β-catenin signaling in SW480 cells. SW480 cells were transfected with TOPflash reporter and control plasmid pCMXβgal. After transfection for 24 hours, cells were treated with increasing concentrations of EA for another 24 hours as indicated. Cells were then harvested and luciferase values were determined. The results are expressed as relative luciferase activity (%) normalized to a β-galactosidase control.
Primary CLL cells and SW480 cells were treated with the indicated amounts of EA. Cells were washed twice with PBS and resuspended in 0.5 mL lysis buffer (20 mM Tris-HCl, pH 8.0/10% glycerol/5 mM MgCl2/0.15 M KCl/0.1% Nonidet P-40 with protease inhibitors). For CLL cells, lysates of 1 to 2×10^7 cells were incubated with anti-LEF-1 antibody at a 1:1000 dilution overnight at 4° C., and then with saturating amounts of protein G plus/protein A agarose beads (Calbiochem) at 4° C. for 2 hours before centrifugation at 15,000 g for 5 minutes. […]

Normal PBMC = assay: Cell viability assay (MTT) with normal peripheral blood mononuclear cells; format: cell-based, human; conditions: Homo sapiens; Normal PBMC from five normal individuals; 48 hours; mean
[5] = test system: lymphoma and myeloma cells; conditions: Schmidt et al., 2009; cited from earlier work
A549 = assay: Cytotoxicity of EA in tumor cell line A549; format: cell-based; conditions: Homo sapiens, mean of at least two experiments

T1 sequence (Q9UJU2 whole entry, one chain of several): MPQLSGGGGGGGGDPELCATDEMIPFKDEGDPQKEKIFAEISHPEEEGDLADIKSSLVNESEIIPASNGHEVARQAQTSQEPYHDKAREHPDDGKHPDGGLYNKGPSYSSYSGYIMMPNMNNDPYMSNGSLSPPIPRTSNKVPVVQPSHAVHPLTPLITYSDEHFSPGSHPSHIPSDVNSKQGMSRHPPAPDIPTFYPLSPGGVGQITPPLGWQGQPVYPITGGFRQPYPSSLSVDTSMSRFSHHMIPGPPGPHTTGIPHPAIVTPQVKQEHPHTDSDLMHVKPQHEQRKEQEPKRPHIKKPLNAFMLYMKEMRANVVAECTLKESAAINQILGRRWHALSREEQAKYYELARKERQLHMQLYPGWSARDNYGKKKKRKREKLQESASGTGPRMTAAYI

α-catenin levels in the β-catenin complex (LEF-1/β-catenin complex): little effect
Compound: C=C(CC)C(=O)c1ccc(OCC(=O)O)c(Cl)c1Cl [Compound 1, Ethacrynic acid]
pIC50 (MCF-7): 4.20 | pIC50 (RAMOS): 3.76 | Fzd5 expression (Fzd5 mRNA): dose-dependent enhancement | effect on NFATc-mediated transcription from a NFAT reporter [1]: did not block | pIC50 (HT29): 4.25 | pEC50 (Primary CLL cells [2]; read-out: CLL Inhibition EC50, CLL survival, MTT): 5.00 | pIC50 (Primary CLL cells [2]; read-out: IC50-EA, Primary CLL cells from nine patients, mean): 5.07 | levels of O2− or H2O2 in CLL cells (CLL cells): no significant increase | effect on Wnt1/LRP6 or Wnt3/LRP6, Dvl, and β-catenin-induced transcription (Wnt/β-catenin signaling; 50 μM EA, 24 hours): reduced | inhibition of TOPflash activity (drug library screen) (Wnt/β-catenin signaling; Dvl-activated, generally at 10 μM and 50 μM, overnight): ≥ 30% | pIC50 (B16): 3.70 | pIC50 (PC3): 4.17 | effect on fludarabine-mediated apoptosis of CLL cells (Primary CLL cells [3]): enhanced | time for which plasma concentrations are sustained ([4]; above 1 μg/ml): up to 3 hours | sustained plasma concentrations ([4]; listed as EA): greater than 1 μg/ml and > 3.3 μM | LEF-1 levels in the β-catenin complex (LEF-1/β-catenin complex): decreased LEF-1 levels in the β-catenin complex in a concentration-dependent manner | pIC50 (Normal PBMC): 4.46 | induction of apoptosis [5]: significant induction of apoptosis | pIC50 (A549): 3.75
